# Reference: article doi:[…]/2021.10.07.463234v2 (biorxiv, 2021)
# Where a name gives a salt, the structure may show the parent alone.
# Target: SARS-CoV-2 Mac1 (Severe acute respiratory syndrome coronavirus 2, UniProt P0DTD1)
# Assay: biochemical
# Settings: for inhibition at 100 µM: read-out: %inhibition; for %inhibition: 100 µM, inhibitor
Compound,inhibition at 100 µM,%inhibition
NC[C@H](CC(=O)O)c1ccc(Cl)cc1 [(R)-baclofen],0%,–
N[C@@H]1CONC1=O [D-Cycloserine],6.32%,–
CN1c2cc(O)c(N=NC(N)=O)cc2CC1S(=O)(=O)O (stereo not drawn) [Carbazochrome sodium sulfonate (AC-17)],15.7%,–
COc1ccc(C[C@@H](C)NC[C@H](O)c2ccc(O)c(NC=O)c2)cc1 (racemic) [Formoterol Hemifumarate],–,0%
"O=C(c1cc(Cc2n[nH]c(=O)c3ccccc23)ccc1F)N1CCN(C(=O)C2CC2)CC1 [Olaparib (AZD2281, Ku-0059436)]",20.2%,–
CC12CC3CC(C)(C1)CC(N)(C3)C2 [Memantine HCl],0%,–
CNC(C)Cc1ccccc1OC (stereo not drawn) [Methoxyphenamine Hydrochloride],0%,–
CO[C@H]1O[C@H](COS(=O)(=O)O)[C@@H](O[C@@H]2O[C@@H](C(=O)O)[C@@H](O[C@H]3O[C@H](COS(=O)(=O)O)[C@@H](O[C@@H]4O[C@H](C(=O)O)[C@@H](O[C@H]5O[C@H](COS(=O)(=O)O)[C@@H](O)[C@H](O)[C@H]5NS(=O)(=O)O)[C@H](O)[C@H]4O)[C@H](OS(=O)(=O)O)[C@H]3NS(=O)(=O)O)[C@H](O)[C@H]2OS(=O)(=O)O)[C@H](O)[C@H]1NS(=O)(=O)O [Fondaparinux Sodium],0%,–
CC(CN(C)C)CN1c2ccccc2Sc2ccccc21 (stereo not drawn) [Alimemazine Tartrate],12.1%,–
CN(CCOc1ccc(CC2SC(=O)NC2=O)cc1)c1ccccn1 (stereo not drawn) [Rosiglitazone maleate],–,9.239%
CCC[C@@H]1C[C@@H](C(=O)N[C@@H]([C@H]2O[C@H](SC)[C@H](OP(=O)(O)O)[C@@H](O)[C@H]2O)[C@H](C)Cl)N(C)C1 [Clindamycin Phosphate],0%,–
CN1CCC(OC(c2ccccc2)c2ccccc2)CC1 [Diphenylpyraline HCl],0%,–
O=c1[nH]c(=O)n([C@H]2C[C@H](O)[C@@H](CO)O2)cc1F [Floxuridine],0%,–
CCC[S+]([O-])c1ccc2[nH]c(NC(=O)OC)nc2c1 (stereo not drawn) [Albendazole Oxide],28%,–
Cc1nc(C)c(Cl)c(O)c1Cl [Clopidol],0.707%,–
Nc1ccc(S(N)(=O)=O)cc1 [Sulfanilamide],19.9%,–
N#CC1(c2ccc(NC(=O)c3cccnc3NCc3ccncc3)cc2)CCCC1 [Apatinib?mesylate],0%,–
Cc1cccc([C@H](C)c2c[nH]cn2)c1C [Dexmedetomidine],–,18.38%
CCCCCCC(=O)O[C@H]1CC[C@H]2[C@@H]3CCC4=CC(=O)CC[C@]4(C)[C@H]3CC[C@]12C [Testosterone Enanthate],0%,–
CN(C)CCOC(C)(c1ccccc1)c1ccccn1 (stereo not drawn) [Doxylamine Succinate],4.4%,–
CCN(CC)CCOC(=O)c1ccc(N)cc1Cl [Chloroprocaine HCl],0%,–
CCOC(=O)C1=C(COCCN)NC(C)=C(C(=O)OC)C1c1ccccc1Cl (stereo not drawn) [Amlodipine],25.5%,–
CC(=O)OCC(COC(C)=O)OC(C)=O [Triacetin],3.58%,–
CN/C(=N\CCSCc1nc[nH]c1C)NC#N [Cimetidine],20.9%,–
N=C(N)NCCC[C@@H](NC(=O)[C@@H]1CCCN1C(=O)[C@@H]1CSSCCC(=O)N[C@@H](Cc2ccc(O)cc2)C(=O)N[C@@H](Cc2ccccc2)C(=O)N[C@@H](CCC(N)=O)C(=O)N[C@@H](CC(N)=O)C(=O)N1)C(=O)NCC(N)=O [Desmopressin Acetate],8.25%,–

Compound,inhibition at 100 µM,%inhibition
C[C@H]1COc2c(C3(N)CC3)c(F)cc3c(=O)c(C(=O)O)cn1c23 [Pazufloxacin mesylate],0%,–
CC(=O)OCC(=O)[C@@]1(O)CC[C@H]2[C@@H]3CCC4=CC(=O)CC[C@]4(C)[C@H]3[C@@H](O)C[C@@]21C [Hydrocortisone acetate],0%,–
CC(=O)[C@H]1CC[C@H]2[C@@H]3CC=C4C[C@@H](O)CC[C@]4(C)[C@H]3CC[C@]12C [Pregnenolone],14.7%,–
Cc1ncc([N+](=O)[O-])n1CC(C)O (stereo not drawn) [Secnidazole],34.4%,–
CC[C@H]1OC(=O)[C@H](C)[C@@H](O[C@H]2C[C@@](C)(OC)[C@@H](O)[C@H](C)O2)[C@H](C)[C@@H](O[C@@H]2O[C@H](C)C[C@H](N(C)C)[C@H]2O)[C@](C)(O)C[C@@H](C)/C(=N\OCOCCOC)[C@H](C)[C@@H](O)[C@]1(C)O [Roxithromycin],0.445%,–
O=C1[C@@H]2[C@H]3CC[C@H](C3)[C@@H]2C(=O)N1C[C@@H]1CCCC[C@H]1CN1CCN(c2nsc3ccccc23)CC1 [lurasidone],0%,–
NC12CC3CC(CC(C3)C1)C2 [Amantadine HCl],0%,–
CC(C)C(=O)c1c(C(C)C)nn2ccccc12 [Ibudilast],0%,–
COc1ccc(CNc2nc(N3CCC[C@H]3CO)ncc2C(=O)NCc2ncccn2)cc1Cl [Avanafil],0%,–
C[C@H](NC(=O)C(=O)Nc1ccccc1C(C)(C)C)C(=O)N[C@@H](CC(=O)O)C(=O)COc1c(F)c(F)cc(F)c1F [Emricasan],21%,–
CC(C)C[C@H](N)C(=O)O [L-Leucine],0%,–
C[N+](C)(C)C[C@H](O)CC(=O)[O-] [L-carnitine],3.55%,–
CCOc1nc2cccc(C(=O)OCc3oc(=O)oc3C)c2n1Cc1ccc(-c2ccccc2-c2noc(=O)[nH]2)cc1 [Azilsartan Medoxomil],9.53%,–
CC(=O)CC/C=C(\C)CC/C=C(\C)CC/C=C(\C)CCC=C(C)C [Teprenone],30.7%,–
CCN(CC)CCOC(=O)c1ccc(N)cc1 [Procaine],0%,–
COc1cccc(-c2c(C)n(Cc3c(F)cccc3C(F)(F)F)c(=O)n(C[C@H](NCCCC(=O)O)c3ccccc3)c2=O)c1F [Elagolix Sodium],0%,–
O=C1O[C@H]([C@@H](O)CO)C(O)=C1O [Sodium ascorbate],–,0%
CN(C)C(=O)c1cc2cnc(Nc3ccc(N4CCNCC4)cn3)nc2n1C1CCCC1 [Ribociclib (LEE011)],0.852%,–
CCOC(=O)c1ccc(C#Cc2ccc3c(c2)C(C)(C)CCS3)nc1 [Tazarotene],0%,–
O=C(O)/C=C/c1ccc(Cn2ccnc2)cc1 [Ozagrel sodium],–,1.667%
CC(C)NCC(O)COc1ccc(CCOCC2CC2)cc1 (stereo not drawn) [Betaxolol HCl],–,10.86%
CCCNC(C)C(=O)Nc1c(C)csc1C(=O)OC (stereo not drawn) [Articaine HCl],0%,–
O=C(O)c1ccc(NC(=O)[C@H](Cc2ccc(O)cc2)NC(=O)c2ccccc2)cc1 [Bentiromide],3.94%,–
Cc1ccccc1-c1cc(N2CCN(C)CC2)ncc1N(C)C(=O)C(C)(C)c1cc(C(F)(F)F)cc(C(F)(F)F)c1 [Netupitant],6.47%,–
OC[C@H]1OC(O)[C@H](O)[C@@H](O)[C@@H]1O (stereo partly drawn) [Dextrose],0%,–

Compound,inhibition at 100 µM,%inhibition
O=C(c1ccc(OCCN2CCCCC2)cc1)c1c(-c2ccc(O)cc2)sc2cc(O)ccc12 [Raloxifene HCl],63.1%,–
Oc1c(I)cc(I)c2cccnc12 [Diiodohydroxyquinoline],6.28%,–
C[N+](C)(C)CC(=O)O [Betaine],0%,–
CCN(CC)CCOC(=O)C(c1ccccc1)c1ccccc1 [Adiphenine HCl],6.54%,–
O=c1cccc2n1C[C@@H]1CNC[C@H]2C1 [Cytisine],0%,–
CNC(=O)c1ccccc1Sc1ccc2c(/C=C/c3ccccn3)n[nH]c2c1 [Axitinib],59.3%,–
O=[N+]([O-])C(Br)(CO)CO [Bronopol],0%,–
CS(=O)(=O)CCNCc1ccc(-c2ccc3ncnc(Nc4ccc(OCc5cccc(F)c5)c(Cl)c4)c3c2)o1 [Lapatinib (GW-572016) Ditosylate],–,16.67%
CC(C)CN(C[C@@H](O)[C@H](Cc1ccccc1)NC(=O)O[C@H]1CO[C@H]2OCC[C@H]21)S(=O)(=O)c1ccc(N)cc1 [Darunavir Ethanolate],0%,–
CCCNC(C)C(=O)Nc1ccccc1C (stereo not drawn) [Prilocaine hydrochloride],0%,–
Cn1nnnc1SCC1=C(C(=O)O)N2C(=O)[C@@H](NC(=O)[C@H](OC=O)c3ccccc3)[C@H]2SC1 [Cefamandole nafate],0%,–
COc1ccc(CN(CCN(C)C)c2ccccn2)cc1 [Pyrilamine Maleate],5.37%,–
O=C(O)CCn1c2c(c3ccccc31)C[C@H](NS(=O)(=O)c1ccc(F)cc1)CC2 [Ramatroban],4.2%,–
O=C(O)c1cc(-c2ccc(F)cc2F)ccc1O [Diflunisal],0.967%,–
CC1=C(C(=O)OCCN(Cc2ccccc2)c2ccccc2)C(c2cccc([N+](=O)[O-])c2)C(P2(=O)OCC(C)(C)CO2)=C(C)N1 (stereo not drawn) [Efonidipine],14.5%,–
CCC[C@@H]1C[C@@H](C(=O)N[C@@H]([C@H]2O[C@H](SC)[C@H](O)[C@@H](O)[C@H]2O)[C@@H](C)O)N(C)C1 [Lincomycin HCl],–,0%
CCC1(C)CC(=O)NC1=O (stereo not drawn) [Ethosuximide],0%,–
CCOC(=O)[N-]c1c[n+](N2CCOCC2)no1 [Molsidomine],0%,–
CCc1cccc2c3c([nH]c12)C(CC)(CC(=O)O)OCC3 (stereo not drawn) [Etodolac],0%,–
CN1CCN(c2ccc3nc(-c4c(N)c5c(F)cccc5[nH]c4=O)[nH]c3c2)CC1 [Dovitinib (TKI258) Lactate],–,26.03%
CCCCCOC(=O)Nc1nc(=O)n([C@@H]2O[C@H](C)[C@@H](O)[C@H]2O)cc1F [Capecitabine],6.29%,–
O=C(NS(=O)(=O)c1ccc(Br)s1)c1ccc(Cl)cc1Cl [Tasisulam],0%,–
N=C(N)NC(=O)Cc1c(Cl)cccc1Cl [Guanfacine Hydrochloride],0%,–
CCN1CCCC1CNC(=O)c1cc(S(=O)(=O)CC)c(N)cc1OC (stereo not drawn) [Amisulpride],7.08%,–
C=C[C@]1(C)C[C@@H](OC(=O)CS[C@@H]2C[C@H]3CC[C@@H](C2)N3C)[C@]2(C)[C@H](C)CC[C@]3(CCC(=O)[C@H]32)[C@@H](C)[C@@H]1O [Retapamulin],0%,–
